US20070142326A1, “Treatment of a condition in a mammal with administration of aminosugar and uses thereof” (priority 2004, published 2007)
“Also recorded” adds a separate entry of the source.

Assays:
[1] = tested on: chondrocytes; conditions: low millimolar concentrations; cited from earlier work
[2] = tested on: articular cartilage of rabbits with ACLT (experimental OA); assay: Histological grading of articular cartilage, ACLT rabbits, intra-articular injections; format: in vivo, New Zealand White rabbits; conditions: N = 6; for Sulfated glycosaminoglycan loss, histological grade: grade 1-3 by loss of Safranin O staining, intra-articular 80 mg twice per week for 7 weeks; for Impairment of cartilage surface integrity, histological grade: grade 1 intact to 3 full thickness defect, intra-articular
Description: (§1) Anterior cruciate ligament transection (ACLT). Unilateral or bilateral ACLT was performed as indicated for each set of experiments. ACLT was performed using a medial arthrotomy technique (Yoshioka et al. Osteoarthritis Cartilage 1996; 4:87-98). After dislocating the patella laterally, the ACL was transected with a sharp blade. Complete transection was confirmed by a manual anterior drawer test The knee joints were irrigated with sterile saline and closed in layers with sutures. All animals were maintained individually with ad libitum activity. The animals were sacrificed 8 weeks after the surgery.
(§2) Intra-articular injections of GlcNAc. Intra-articular injections of GlcNAc started one week post-operatively for a period of seven weeks. Rabbits were injected twice per week with GlcNAc in a volume of 0.3 ml per knee joint The single dose of GlcNAc per injection was 80 mg. Control animals were injected twice per week intra-articularly with normal saline (0.3 ml per joint). The third group of rabbits received intra-articular injections of hyaluronan (0.3 ml per joint) twice per week for seven weeks starting one week after the ACL transection. Synovial fluid analysis was performed in 3 animals that developed gross synovial effusions (2 animals in the control group and 1 animal in the hyaluronan group). In all three animals synovial fluid was culture negative.
(§3) Histological grading of the knee joints. Distal femur and proximal tibia from the rabbit knee joints were fixed in 10% buffered formalin, decalcified in TBD-2 decalcifier (ThermoShandon, Pittsburg, Calif.) and embedded in paraffin blocks. Sagittal sections of lateral and medial femoral condyles, and coronal sections of tibial plateaus were used for further histological analysis.
The assessment of sulfated glycosaminoglycan (SGAG) content was performed after staining of the tissue sections with Safranin O/Fast Green.
The following grading system was used for assessing SGAG content: Grade 1—Less than 25% loss of Safranin O staining, Grade 2—25-50% loss of Safranin O staining; Grade 3—More than 50% loss of Safranin O staining;
The following grading system was used for assessing cartilage integrity: Grade 1—Intact cartilage surface; Grade 2—Presence of fibrillations; Grade 3—Full thickness cartilage defect. In addition, all tissue samples were analyzed for the presence of chondrocyte proliferation or cloning.

[3] = tested on: synovium of rabbits with ACLT (experimental OA); assay: Histological grading of synovium, ACLT rabbits, intra-articular injections; format: in vivo, New Zealand White rabbits
Description: as §1, §2, §3
Histological assessment of synovium was based on the presence of synovial proliferation and synovial neoangiogenesis, and it was performed separately for the synovium attached to the tibial plateaus, lateral, and medial femoral condyles.

[4] = tested on: subchondral bone marrow of rabbits with ACLT (experimental OA); assay: Histological grading of subchondral bone marrow, ACLT rabbits, intra-articular injections; format: in vivo, New Zealand White rabbits
Description: as §1, §2, §3
Microscopic assessment of bone marrow was based on the presence of subchondral bone marrow hypercellularity and increased vascularization as shown in Table 3.

[5] = tested on: femoral condyles and tibial plateaus of rabbits with ACL transection; assay: Gross morphological assessment and digital imaging of articular cartilage, ACLT rabbits, intra-articular injections; format: in vivo, New Zealand White rabbits; conditions: for Gross morphological analysis of the femoral condyles: FIG. 2
Description: as §1, §2
Gross morphological assessment of the articular cartilage. The distal femur and proximal tibia were harvested keeping a 3.5 cm to 4 cm shaft of the bones. The articular cartilage surface of each specimen was covered with a solution consisting of India ink (Eberhard Faber, Lewisburg, Tenn.) in PBS (1:5 ratio). Excess ink solution was removed by gentle blotting with a tissue that was pre-moistened with PBS. Subsequently, all joints were photographed and digital images were analyzed.
Digital imaging. Articular surfaces of femoral condyles and tibial plateaus were gently blotted dry and cleaned of loose tissue. Each femoral shaft was clamped to an optical bench. An image (resolution: 60 pixels per mm; onscreen magnification: 20×) of the femoral condyles was obtained using a Canon EOS D30 digital camera with a 100 mm macro lens at a distance of approximately 12 cm. A millimeter scale was included in the photograph to accurately scale the image. The scaled image was then projected onto a 3D model of the femoral condyles. The 3D surface area of the lesion was measured by interactively plotting the margins of the lesion. A digital image of articular surface of the tibia was obtained as described above.

[6] = tested on: knee joints of rabbits with ACL transection; assay: Gross morphological assessment of joint swelling and synovial effusion, ACLT rabbits, intra-articular injections; format: in vivo, New Zealand White rabbits; conditions: FIG. 4
Description: as §1, §2
(§4) Gross morphological assessment of the knee joints. Gross morphological assessment of the knee joints included assessment of joint swelling, synovial effusion, macroscopic articular cartilage morphology of tibial plateaus and femoral condyles, and assessment of the menisci.
The following grading system was used to assess joint swelling: Grade 0-normal; Grade 1 (mild swelling)—mild inflammation and/or proliferation of the joint capsule; Grade 2 (moderate swelling)—thickening of joint capsule and/or inflammation of the synovium; Grade 3 (severe swelling)—abundant inflammation of the synovium, swelling of the menisci or ligaments (anterior cruciate ligament or posterior cruciate ligament).

[7] = tested on: synovial tissue of rabbits with ACL transection; assay: DNA content in synovial tissue, ACLT rabbits, intra-articular injections; format: in vivo, New Zealand White rabbits; conditions: FIG. 5
Description: as §1
Intra-articular injections of GlcNAc. Intra-articular injections of GlcNAc started one week post-operatively for a period of seven weeks. Rabbits were injected twice per week with GlcNAc in a volume of 0.3 ml per knee joint The single dose of GlcNAc per injection was 80 mg. Control animals were injected twice per week intra-articularly with normal saline (0.3 ml per joint). […]
Measurement of DNA content in synovial tissue. Synovial tissue cellularity was assessed by quantitating the tissue concentration of DNA (Amiel et. al. J Orthop Res 1986; 4:162-172). […] The aqueous phase containing the DNA was harvested, and the absorbance was measured at […]. […] Results were expressed as mg DNA per mg of dry tissue.

[8] = tested on: rabbits with bilateral anterior cruciate ligament transection (ACLT); assay: Intra-muscular GlcNAc in rabbits with bilateral ACLT, gross morphological grading; format: in vivo, New Zealand White rabbits
Description: as §1
Intra-muscular injections of GlcNAc. Intra-muscular injections of GlcNAc were performed three times per week starting one week postoperatively for a period of seven weeks. The dose of GlcNAc was 200 mg/kg per injection. The control group of received the same number of intra-muscular injections of normal saline.
as §4
Gross morphological assessment of the articular cartilage. […] Subsequently, all joints were photographed and digital images were analyzed.

[9] = Continuous delivery of GlcNAc to the joint (sustained release and alzet pump methods); conditions: after a single intra-articular administration
Description: Release of GlcNAc from formulations incubated in phosphate buffered saline. An in vitro release study was performed in phosphate buffered saline to evaluated release kinetics under physiological conditions. Each sustained release formulation (100 μl) was placed in 1.0 mL of phosphate buffered saline and then incubated at 37° C. At different time points, the formulation matrix was separated by removing the phosphate buffered saline bathing solution with a pipet. The resulting solutions were analyzed by UV detection after GlcNAc derivatives were formed by methods previously described (Reissig et. al. J. Biol. Chem. 1955 217: 959-966). The formulation matrix was then re-suspended in 1.0 mL phosphate buffered saline and incubated under the same conditions as described above.
Alzet Pump Administration of GlcNAc. New Zealand White rabbits, 3.0-3.5 kg, were used in this experiment. They were randomly allocated into five groups, each group having 8 rabbits. Group A was treated with saline (negative control group); Group B was treated with 1.5 M GlcNAc group; Group C was treated with 0.5 M GlcNAc group; Group D was treated with 0.15 M GlcNAc group; Group E was treated with 0.05 M GlcNAc group. All compounds were continuously delivered to the joints by Alzet mini pumps. The delivery rate for this pump was 2.5 μl/hour. […]

[10] = tested on: human articular chondrocytes; conditions: cited from earlier work

N[C@H]1C(O)O[C@H](CO)[C@@H](O)[C@@H]1O (stereo partly drawn) [GlcN, glucosamine]
Cytotoxicity for chondrocytes [1]: cytotoxic for chondrocytes at low millimolar concentrations

CC(=O)N[C@H]1C(O)O[C@H](CO)[C@@H](O)[C@@H]1O (stereo partly drawn) [GlcNAc, N-Acetylglucosamine]
Sulfated glycosaminoglycan loss, histological grade ([2]; Lateral femoral condyle, saline 2.43 ± 0.53, P ≦ 0.03): 1.50 ± 0.83
Impairment of cartilage surface integrity, histological grade ([2]; Lateral femoral condyle, saline 2.00 ± 1.00, P ≦ 0.17): 1.33 ± 0.51
Sulfated glycosaminoglycan loss, histological grade ([2]; Medial femoral condyle, saline 1.57 ± 0.53, P ≦ 0.4): 1.66 ± .33
Impairment of cartilage surface integrity, histological grade ([2]; Medial femoral condyle, saline 1.66 ± 0.41, P ≦ 0.91): 1.66 ± 0.81
Sulfated glycosaminoglycan loss, histological grade ([2]; Tibial plateau, saline 1.71 ± 0.76, P ≦ 0.14): 1.16 ± 0.40
Impairment of cartilage surface integrity, histological grade ([2]; Tibial plateau, saline 1.71 ± 0.49, P ≦ 0.05): 1.16 ± 0.41
Synovial neoangiogenesis, animals with finding / animals ([3]; Lateral femoral condyle, N = 6, saline 4/7, P ≦ 0.16): 1/6
Synovial thickening/proliferation, animals with finding / animals ([3]; Lateral femoral condyle, N = 6, saline 7/7, P ≦ 0.006): 2/6
Synovial neoangiogenesis, animals with finding / animals ([3]; Medial femoral condyle, N = 6, saline 5/7, P ≦ 0.05): 1/6
Synovial thickening/proliferation, animals with finding / animals ([3]; Medial femoral condyle, N = 6, saline 7/7, P ≦ 0.006): 2/6
Synovial neoangiogenesis, animals with finding / animals ([3]; Tibial plateau, N = 6, saline 4/7, P ≦ 0.16): 1/6
Synovial thickening/proliferation, animals with finding / animals ([3]; Tibial plateau, N = 6, saline 7/7, P ≦ 0.0002): 1/6
Subchondral bone marrow hypercellularity and increased vascularization, animals with finding / animals ([4]; Lateral femoral condyle, N = 6, saline 3/7, P ≦ 0.07): 0/6
Subchondral bone marrow hypercellularity and increased vascularization, animals with finding / animals ([4]; Medial femoral condyle, N = 6, saline 3/7, P ≦ 0.07): 0/6
Subchondral bone marrow hypercellularity and increased vascularization, animals with finding / animals ([4]; Tibial plateau, N = 6, saline 3/7, P ≦ 0.35): 1/6
Surface areas of the cartilage lesions (digital image analysis) ([5]; femoral condyles and tibial plateaus, intra-articular GlcNAc versus hyaluronan group, FIGS. 6a and 6b): greatly reduced
Gross morphological analysis of the femoral condyles ([5]; intra-articular GlcNAc versus intra-articular hyaluronan group (n=7)): no significant difference
Chondroprotective activity, gross morphology of tibial plateaus ([5]; intra-articular GlcNAc versus intra-articular hyaluronan, p<0.01, FIG. 3): significantly greater
Gross morphological analysis of the femoral condyles ([5]; intra-articular, two times per week for seven weeks, n=7, versus saline control): trend towards improved cartilage condition
Rabbits that developed a cartilage lesion on the tibial plateaus ([5]; intra-articular, two times per week for seven weeks, control group 6 of 7, p<0.003, FIG. 3): 1 of 7
Synovial effusion ([6]; intra-articular GlcNAc versus hyaluronan group): no significant difference
Joint swelling ([6]; intra-articular, versus saline): does not significantly affect
Synovial effusions ([6]; intra-articular, versus saline): does not significantly affect
DNA content assessment of synovial tissue ([7]; intra-articular GlcNAc versus hyaluronan group, p<0.05): significant reduction in synovial hyperplasia and cellularity
DNA content in synovial tissue ([7]; intra-articular, versus saline): does not significantly affect
Degree of cartilage damage, gross morphological analysis of tibial plateaus and femoral condyles ([8]; intra-muscular 200 mg/kg three times per week for seven weeks, 6 rabbits versus 6 saline controls, FIGS. 1a and 1b): did not reveal a statistically significant difference
Synovitis ([8]; intra-muscular GlcNAc): trend towards reduction of synovitis; also recorded: significant reduction of synovitis
Duration of continuous delivery to the joint [9]: more than three weeks
Concentration that does not induce chondrocyte cell death [10]: higher than 50 mM
